Results published in BindingDB's records for doi:10.1002/cbic.200400135 (Max Planck Institute for Coal Research, 2004).

What was measured:
Test in all cases: Phosphatase Inhibition Assay
[1] = molecular target: T1, M-phase inducer phosphatase 1 (Homo sapiens, UniProt P30304); conditions: pH 8; 37 °C
T1 sequence (P30304 whole entry): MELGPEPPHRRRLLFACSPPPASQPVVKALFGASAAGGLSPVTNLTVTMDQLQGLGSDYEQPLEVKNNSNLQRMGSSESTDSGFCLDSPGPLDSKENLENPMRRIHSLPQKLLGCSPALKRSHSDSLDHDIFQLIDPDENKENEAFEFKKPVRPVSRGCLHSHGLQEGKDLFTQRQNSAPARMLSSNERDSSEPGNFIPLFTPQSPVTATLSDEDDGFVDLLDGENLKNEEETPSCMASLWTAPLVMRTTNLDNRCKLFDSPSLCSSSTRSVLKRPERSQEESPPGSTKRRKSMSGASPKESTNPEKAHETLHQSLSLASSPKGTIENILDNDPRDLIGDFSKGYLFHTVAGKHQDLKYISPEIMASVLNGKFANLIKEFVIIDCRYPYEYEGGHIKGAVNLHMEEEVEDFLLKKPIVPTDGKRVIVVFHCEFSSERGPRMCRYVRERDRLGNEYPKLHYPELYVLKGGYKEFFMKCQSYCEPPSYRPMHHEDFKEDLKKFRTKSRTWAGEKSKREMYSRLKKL

[2] = molecular target: Dual specificity protein phosphatase 3 (Homo sapiens, UniProt P51452); conditions: pH 6.5; 37 °C
Sequence of Dual specificity protein phosphatase 3 (P51452 whole entry): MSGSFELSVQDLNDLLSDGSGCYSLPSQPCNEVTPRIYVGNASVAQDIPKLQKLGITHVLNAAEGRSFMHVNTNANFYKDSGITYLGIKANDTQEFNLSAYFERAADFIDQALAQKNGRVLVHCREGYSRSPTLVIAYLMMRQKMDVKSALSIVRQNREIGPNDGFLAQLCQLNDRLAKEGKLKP

[3] = molecular target: T2, Tyrosine-protein phosphatase non-receptor type 1 (Homo sapiens, UniProt P18031); conditions: pH 7.2; 37 °C
T2 sequence (P18031 whole entry): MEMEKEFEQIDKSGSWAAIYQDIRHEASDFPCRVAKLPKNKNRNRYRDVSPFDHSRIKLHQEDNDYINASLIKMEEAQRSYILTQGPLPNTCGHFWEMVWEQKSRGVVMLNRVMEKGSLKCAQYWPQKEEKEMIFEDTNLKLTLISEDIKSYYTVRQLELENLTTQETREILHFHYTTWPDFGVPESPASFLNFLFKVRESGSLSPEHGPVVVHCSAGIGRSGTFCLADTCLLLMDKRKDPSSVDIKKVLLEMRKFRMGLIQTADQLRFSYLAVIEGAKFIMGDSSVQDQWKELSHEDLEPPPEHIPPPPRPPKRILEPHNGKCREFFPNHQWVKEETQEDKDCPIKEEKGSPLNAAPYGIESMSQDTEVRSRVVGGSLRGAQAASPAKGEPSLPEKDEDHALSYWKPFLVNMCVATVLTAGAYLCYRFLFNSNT

IC50 [1] [µM]	IC50 [2] [µM]	IC50 [3] [µM]	Compound
> 50	9	12	C=CC/C=C(/C)c1ccc(C2=N/C(=C\c3ccc(CCCCC=C)[nH]3)C(OC)=C2)[nH]1 [Acyclic analogue, 12]
> 50	11	11	C=CCCCCc1ccc(/C=C2\N=C(c3ccc[nH]3)C=C2OC)[nH]1 [Acyclic analogue, 13]
> 50	21	10	CCc1ccc(/C=C2\N=C(c3ccc[nH]3)C=C2OC)[nH]1 [Acyclic analogue, 14]
> 50	39	28	C=CCCCCc1ccc(/C=C2\N=C(c3ccc(CCCC=C)s3)C=C2OC)[nH]1 [Acyclic analogue, 15]
> 50	8	46	C=CCCCCc1ccc(/C=C2\NC(=O)C=C2OC)[nH]1 [Acyclic analogue, 16]
> 50	21	16	COC1=CC(=O)N/C1=C\c1ccc(CCCC/C=C/CCCCC(=O)O)[nH]1 [Acyclic analogue, 18]
> 50	28	23	COC1=CC2=N/C1=C\c1ccc([nH]1)CCCC/C=C/CCCC1=CC=C2O1 [Cyclic analogue, 7]
> 50	41	24	COC1=CC2=N/C1=C\c1ccc([nH]1)CCCC/C=C/CCCCCCCCCCC1=CC=C2O1 [Cyclic analogue, 8]
> 50	30	> 50	COC1=CC2=N/C1=C\c1ccc([nH]1)CCCC/C=C/CCCc1cccc2c1 [Cyclic analogue, 9]
> 50	15	10	CC(C)[C@H]1c2cc3[nH]c2=C(c2ccc(-c4ccc[nH]4)o2)[C@@H]1CCCCCCCC=3 [Roseophilin analogue, 3]

Compound	IC50 [1] [µM]	IC50 [2] [µM]	IC50 [3] [µM]
COc1cc(-c2[nH]ccc2Cl)oc1C1=c2[nH]c3cc2[C@H](C(C)C)[C@H]1CCCCCCCC=3	28	32	38
C/C(=C1\C=CC=N1)c1ccc(-c2ccc[nH]2)o1	40	4.9	–
C/C(=C1\C=CC=N1)c1ccc(-c2[nH]ccc2Cl)o1 [3-chloro-2-(5-{1-[(2Z)-2H-pyrrol-2-ylidene]ethyl}furan-2-yl)-1H-pyrrole, 4]	34	9	6
C=CCCCCc1ccc(/C=C2\N=C(c3ccc(CCCC=C)[nH]3)C=C2OC)[nH]1 [Acyclic analogue, 10]	> 50	> 50	> 50
C=CCCCCc1ccc(C=C2N=C(c3ccc(C(=O)CCC=C)[nH]3)C=C2OC)[nH]1 [Acyclic analogue, 11]	> 50	> 50	32
CCc1ccc(/C=C2\NC(=O)C=C2OC)[nH]1 [Acyclic analogue, 17]	> 50	> 50	> 50
COc1cc(-c2[nH]ccc2Cl)oc1C1=c2[nH]c3cc2[C@@H](C(C)C)[C@@H]1CCCCCCCC=3 [Roseophilin, 2]	21	6	6
